In patent US20030013643A1, “Prevention and treatment of streptococcal and staphylococcal infection” (priority 2000, published 2003):

Columns and labels:
[1] = test system: GAS 950771 or GAS 282; experiment: GAS binding to and displacement from human keratinocyte monolayers; type: cell-based, Streptococcus pyogenes; conditions: 1 mg/ml
[2] = test system: wild-type GAS, strain 950771; experiment: GAS translocation through polarized human keratinocyte monolayers; type: cell-based, Streptococcus pyogenes; conditions: pre-treated 30 minutes with 2 mg/ml, compared to untreated monolayers
Experimental: Human keratinocytes were cultured on 3.0 μm filters to allow polarization and establishment of functional intercellular tight junctions. Cells were infected as described previously with wild-type GAS, strain 950771. To assess the ability of exogenously added HA to inhibit the translocation of GAS through the keratinocyte monolayer, cells were pre-treated for 30 minutes with either 2 mg/ml of hyaluronic acid (HA) or another acidic polysaccharide, alginate (AL), at the same concentration. Aliquots of media from the lower chamber of infected keratinocyte monolayers were cultured on blood agar plates at 1 and 2 hours after inoculation with bacteria to assess the number of translocating bacteria. […] In contrast only 20% and 25% of the wild-type bacteria were blocked by AL at 1 and 2 hours, respectively.
GAS strains were 950771, an M-type 3 strain originally isolated from a child with necrotizing fasciitis, and 188, an isogenic acapsular mutant derived from 950771 (Ashbaugh, C. D., et al., (1998) J. Clin. Invest. 102, 550-560). Bacteria were cultured in Todd Hewitt broth (Difco, Sparks, Md.) to early exponential phase. For preparation of polarized keratinocyte monolayers, human squamous cell carcinoma cell line, SCC13, derived from cheek epidermis (Cline, P. R. & Rice, R. H. (1983) Cancer Res. 43, 3203-3207) was cultured to confluence in serum-free keratinocyte medium (Gibco BRL, Rockville, Md.) supplemented with 50 μg/ml bovine pituitary extract, 0.1 ng/ml epidermal growth factor and 0.3 mM calcium chloride (c-SFM). Certain experiments were performed also using cell monolayers prepared from OKP7 primary human keratinocytes (Crowe et al. (1991) Differentiation 48, 199-208). Keratinocytes were seeded at 5×10^5 cells per well onto polycarbonate Transwell membrane supports (12-well plates, 3.0 μm pore size; Costar, Corning, N.Y.) and cultured for 6-10 days at 37° C. with 5% CO2 in c-SFM, with daily medium changes. Once confluent, the integrity of the monolayer was assessed routinely by measuring permeability to sodium fluorescein (Tchao, R. (1988) Alternative Methods in Toxicology (eds. Goldberg, A. M.) 271-283 (Ann Liebert, N.Y.) and, in some experiments, by measuring transepithelial electrical resistance (McNamara, B. P., et al. (2001) J Clin Invest 107, 621-9).
Keratinocyte monolayers on Transwells were inoculated with GAS at a multiplicity of infection of 10 per keratinocyte. Monolayers were incubated at 37° C. with 5% CO2. The keratinocyte medium in the upper chamber was replaced two hours after adding GAS, and the Transwell inserts containing the keratinocytes were moved to new wells containing fresh medium every 2 hours to prevent overgrowth of translocated bacteria. Translocation was assessed by quantitative cultures of medium from the lower chamber at 2 hour intervals.
As a model of the movement of GAS from the pharyngeal mucosa or skin surface into underlying tissue, GAS translocation was studied in vitro through keratinocyte monolayers. Two hours after inoculation onto the surface of a confluent keratinocyte monolayer, wild-type GAS was detected in the culture medium below the membrane support, indicating migration of the organisms through the monolayer. At each of several intervals after inoculation, approximately 20 to 100 times as many GAS were recovered below monolayers inoculated with wild-type GAS compared to those inoculated with the acapsular mutant strain.(Figure 12a). […] Compared to wild-type GAS strain 950771, the efficiency of translocation was similar for wild-type GAS strains 87-282, a highly encapsulated M-type 18 strain, and for DLS003, a poorly encapsulated M-type 3 strain. Translocation of wild-type GAS was reduced by 78% at 1 hour in experiments in which the keratinocyte monolayers were pretreated with monoclonal antibody IM7.8.1 to block interaction of the GAS capsule with CD44 . […]

## hyaluronic acid
[1]; GAS 950771 or GAS 282, not strain specific
  inhibition of GAS binding to human cells: block GAS binding to human cells
[1]; after 45 minutes
  displacement of bound bacteria: displaced bound GAS
[2]; 1 hour after inoculation
  blocking of translocating GAS: 100%
[2]; 2 hours after inoculation
  blocking of translocating GAS: 100%
